# Assay results published in the supplement of paper PMC10307832.
# Tests used:
# Test in all cases: relative viability (nuclei count vs DMSO), 5 days (fraction); higher = more cells survive
# [1] = compound: O=C(CCCCCCNC(=O)c1cnc(N(c2ccccc2)c2ccccc2)nc1)NO [Ricolinostat] + CC(=O)Nc1cccc(-n2c(=O)n(C3CC3)c(=O)c3c(Nc4ccc(I)cc4F)n(C)c(=O)c(C)c32)c1 [Trametinib] (partner 0.02 µM)
# Outline: (§1)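 The day after seeding in 1536-well plates, lung cancer cell lines were treated by pin tool with a single drug, or with a fixed anchor-drug dose together with five library-drug doses (not always all listed) in √10 steps. After 5 days, a combined fix-and-stain solution (final 0.05% Triton X-100, 1% formaldehyde, 1 ug/ml Hoechst) was added. Nuclei counted on 4× images gave relative viability as treated counts over vehicle counts, reported as the median of duplicate plates.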
# TGX 221 + Pemetrexed = compound: CC1=CN2C(=O)C=C(N=C2C(=C1)C(C)NC3=CC=CC=C3)N4CCOCC4 [TGX 221] + Nc1nc2[nH]cc(CCc3ccc(C(=O)N[C@@H](CCC(=O)O)C(=O)O)cc3)c2c(=O)[nH]1 [Pemetrexed] (partner 0.2 µM)
# Outline: as §1
# TGX 221 + Pictilisib = compound: CC1=CN2C(=O)C=C(N=C2C(=C1)C(C)NC3=CC=CC=C3)N4CCOCC4 [TGX 221] + CS(=O)(=O)N1CCN(Cc2cc3nc(-c4cccc5[nH]ncc45)nc(N4CCOCC4)c3s2)CC1 [Pictilisib] (partner 1 µM)
# Outline: as §1
# [2] = compound: C1=CC=C(C(=C1)C2=CC=C(C=C2)C3=CSC4=C3C(=C(C(=O)N4)C#N)O)O + O=C(c1cc(Cc2n[nH]c(=O)c3ccccc23)ccc1F)N1CCN(C(=O)C2CC2)CC1 [Olaparib] (partner 8 µM)
# Outline: as §1
Cell Line,relative viability ([1]; first compound 0.253 µM),relative viability ([1]; first compound 0.8 µM),relative viability ([1]; first compound 2.53 µM),relative viability (TGX 221 + Pemetrexed; first compound 0.08 µM),relative viability (TGX 221 + Pemetrexed; first compound 0.253 µM),relative viability (TGX 221 + Pemetrexed; first compound 0.8 µM),relative viability (TGX 221 + Pemetrexed; first compound 2.53 µM),relative viability (TGX 221 + Pemetrexed; first compound 8 µM),relative viability (TGX 221 + Pictilisib; first compound 0.08 µM),relative viability (TGX 221 + Pictilisib; first compound 0.253 µM),relative viability (TGX 221 + Pictilisib; first compound 0.8 µM),relative viability (TGX 221 + Pictilisib; first compound 2.53 µM),relative viability (TGX 221 + Pictilisib; first compound 8 µM),relative viability ([2]; first compound 0.253 µM),relative viability ([2]; first compound 0.8 µM),relative viability ([2]; first compound 2.53 µM),relative viability ([2]; first compound 8 µM),relative viability ([1]; first compound 0.08 µM),relative viability ([2]; first compound 0.08 µM)
NCI-H1395,0.957,1.08,1.2,0.73,0.766,0.709,0.604,0.724,0.571,0.531,0.572,0.676,0.523,0.469,0.479,0.458,0.446,,
NCI-H1651,0.794,0.83,0.835,0.54,0.628,0.438,0.517,0.586,0.501,0.481,0.584,0.578,0.465,0.182,0.197,0.186,0.16,0.768,0.185
CAL-12T,0.32,0.456,0.395,1.12,0.976,1.21,1.25,1.17,,0.415,0.376,,0.519,0.834,0.824,0.856,0.651,0.266,0.724
NCI-H23,0.414,0.428,0.406,0.599,0.571,0.678,0.526,0.578,0.518,0.465,0.446,0.439,0.451,0.298,0.37,0.336,0.273,0.445,0.282
NCI-H2228,0.534,0.482,0.45,0.357,0.369,0.356,0.313,0.332,0.348,0.452,0.448,0.282,0.314,0.604,0.568,0.613,0.575,0.642,0.425
NCI-H661,0.569,0.592,0.568,0.878,0.919,0.955,0.955,0.853,0.388,0.464,0.403,0.323,0.355,0.799,0.724,0.843,0.708,0.498,0.64
